Source: the supplement of paper PMC13207355
Structures can show the parent of a compound that is named as a salt.

Legend:
Conditions in all cases: exposure time: 72 h
[1] = tested on: E28 (patient-derived glioblastoma stem cells of classical subtype); assay: surviving fraction (nuclei count normalised to DMSO); higher = more cells surviving (less toxic)
[2] = tested on: FT3469 (normal neural stem cell line); assay: as above
[3] = tested on: E13 (patient-derived glioblastoma stem cells of classical subtype); assay: as above
[4] = tested on: E57 (patient-derived glioblastoma stem cells of mesenchymal subtype); assay: as above
[5] = tested on: E34 (patient-derived glioblastoma stem cells of proneural subtype); assay: as above
[6] = tested on: E21 (patient-derived glioblastoma stem cells of mesenchymal subtype); assay: as above
[7] = tested on: E31 (patient-derived glioblastoma stem cells of proneural subtype); assay: as above
[8] = tested on: E28; assay: phenotypic distance (Euclidean, principal components) from DMSO controls (arbitrary units); higher = stronger morphological change
[9] = tested on: FT3469; assay: as above
[10] = tested on: E13; assay: as above
[11] = tested on: E57; assay: as above
[12] = tested on: E34; assay: as above
[13] = tested on: E21; assay: as above
[14] = tested on: E31; assay: as above
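For phenotypic distance (Euclidean, principal components) from DMSO controls in this document: cell Painting imaging in 384-well plates, CellProfiler features reduced to at least 20 principal components, Euclidean distance versus same-plate DMSO vehicle wells (0.1% v/v), median over six images per well.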
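For surviving fraction (nuclei count normalised to DMSO) in this document: nuclei counted by high-content imaging of Hoechst-stained cells in laminin-coated 384-well plates, relative to 0.1% DMSO vehicle wells, with staurosporine as cell-death control.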

CCCCC(CC)CNC(=N)NC(=N)NCCCCCCNC(=N)NC(=N)NCC(CC)CCCC (centres undefined) [Alexidine dihydrochloride]
Conditions	phenotypic distance	surviving fraction
[1], 4.1 nM	–	0.911
[1], 12.3 nM	–	0.933
[1], 37 nM	–	0.847
[1], 111.1 nM	–	1.04
[1], 333.3 nM	–	0.694
[1], 1000 nM	–	0.233
[1], 3000 nM	–	0.0064
[2], 4.1 nM	–	0.76
[2], 12.3 nM	–	0.814
[2], 37 nM	–	0.863
[2], 111.1 nM	–	1.16
[2], 333.3 nM	–	0.863
[2], 1000 nM	–	0.504
[2], 3000 nM	–	0.0403
[3], 4.1 nM	–	0.884
[3], 12.3 nM	–	0.905
[3], 37 nM	–	0.978
[3], 111.1 nM	–	0.877
[3], 333.3 nM	–	0.607
[3], 1000 nM	–	0.602
[3], 3000 nM	–	0.0804
[4], 4.1 nM	–	1.01
[4], 12.3 nM	–	1.01
[4], 37 nM	–	0.91
[4], 111.1 nM	–	1.03
[4], 333.3 nM	–	0.828
[4], 1000 nM	–	0.252
[4], 3000 nM	–	0.00967
[5], 4.1 nM	–	0.86
[5], 12.3 nM	–	1.11
[5], 37 nM	–	0.972
[5], 111.1 nM	–	0.991
[5], 333.3 nM	–	0.939
[5], 1000 nM	–	0.512
[5], 3000 nM	–	0.0472
[6], 4.1 nM	–	0.967
[6], 12.3 nM	–	0.916
[6], 37 nM	–	0.945
[6], 111.1 nM	–	1.02
[6], 333.3 nM	–	1.07
[6], 1000 nM	–	0.368
[6], 3000 nM	–	0.00297
[7], 4.1 nM	–	0.955
[7], 12.3 nM	–	0.825
[7], 37 nM	–	1.1
[7], 111.1 nM	–	1.02
[7], 333.3 nM	–	0.871
[7], 1000 nM	–	0.125
[7], 3000 nM	–	0.013
[8], 4.1 nM	1.07	–
[8], 12.3 nM	0.612	–
[8], 37 nM	0.518	–
[8], 111.1 nM	0.461	–
[8], 333.3 nM	1.31	–
[8], 1000 nM	3.13	–
[8], 3000 nM	12.9	–
[9], 4.1 nM	1.28	–
[9], 12.3 nM	1.28	–
[9], 37 nM	1.13	–
[9], 111.1 nM	0.545	–
[9], 333.3 nM	1.44	–
[9], 1000 nM	2.26	–
[9], 3000 nM	11.7	–
[10], 4.1 nM	0.582	–
[10], 12.3 nM	0.387	–
[10], 37 nM	0.788	–
[10], 111.1 nM	0.757	–
[10], 333.3 nM	1.76	–
[10], 1000 nM	1.39	–
[10], 3000 nM	10.1	–
[11], 4.1 nM	0.655	–
[11], 12.3 nM	0.696	–
[11], 37 nM	0.435	–
[11], 111.1 nM	0.715	–
[11], 333.3 nM	1.53	–
[11], 1000 nM	6.34	–
[11], 3000 nM	10.4	–
[12], 4.1 nM	1.35	–
[12], 12.3 nM	1.19	–
[12], 37 nM	0.769	–
[12], 111.1 nM	0.582	–
[12], 333.3 nM	0.858	–
[12], 1000 nM	4.01	–
[12], 3000 nM	14.9	–
[13], 4.1 nM	0.597	–
[13], 12.3 nM	1.12	–
[13], 37 nM	0.958	–
[13], 111.1 nM	0.651	–
[13], 333.3 nM	0.84	–
[13], 1000 nM	4.98	–
[13], 3000 nM	19	–
[14], 4.1 nM	0.786	–
[14], 12.3 nM	0.686	–
[14], 37 nM	1.01	–
[14], 111.1 nM	0.884	–
[14], 333.3 nM	0.669	–
[14], 1000 nM	5.57	–
[14], 3000 nM	11.7	–

CCC(C)(C)c1ccc(CC(C)CN2C[C@@H](C)O[C@@H](C)C2)cc1 (some centres undefined) [Amorolfine hydrochloride]
Conditions	phenotypic distance	surviving fraction
[1], 4.1 nM	–	1.09
[1], 12.3 nM	–	0.852
[1], 37 nM	–	1.21
[1], 111.1 nM	–	0.914
[1], 333.3 nM	–	1.17
[1], 1000 nM	–	0.839
[1], 3000 nM	–	0.777
[2], 4.1 nM	–	1.01
[2], 12.3 nM	–	0.924
[2], 37 nM	–	1.24
[2], 111.1 nM	–	1.1
[2], 333.3 nM	–	1.02
[2], 1000 nM	–	0.973
[2], 3000 nM	–	1.02
[3], 4.1 nM	–	0.95
[3], 12.3 nM	–	0.95
[3], 37 nM	–	1
[3], 111.1 nM	–	0.97
[3], 333.3 nM	–	0.959
[3], 1000 nM	–	0.957
[3], 3000 nM	–	0.638
[4], 4.1 nM	–	1
[4], 12.3 nM	–	0.954
[4], 37 nM	–	1.05
[4], 111.1 nM	–	1.02
[4], 333.3 nM	–	0.957
[4], 1000 nM	–	0.983
[4], 3000 nM	–	1.02
[5], 4.1 nM	–	0.983
[5], 12.3 nM	–	1.06
[5], 37 nM	–	0.937
[5], 111.1 nM	–	1.06
[5], 333.3 nM	–	1.09
[5], 1000 nM	–	1.14
[5], 3000 nM	–	0.815
[6], 4.1 nM	–	0.94
[6], 12.3 nM	–	1.02
[6], 37 nM	–	0.982
[6], 111.1 nM	–	1.09
[6], 333.3 nM	–	1.03
[6], 1000 nM	–	1.07
[6], 3000 nM	–	0.816
[7], 4.1 nM	–	0.939
[7], 12.3 nM	–	0.934
[7], 37 nM	–	0.967
[7], 111.1 nM	–	0.983
[7], 333.3 nM	–	1.05
[7], 1000 nM	–	0.996
[7], 3000 nM	–	0.804
[8], 4.1 nM	0.829	–
[8], 12.3 nM	0.874	–
[8], 37 nM	0.838	–
[8], 111.1 nM	0.682	–
[8], 333.3 nM	0.846	–
[8], 1000 nM	0.746	–
[8], 3000 nM	1.38	–
[9], 4.1 nM	1.11	–
[9], 12.3 nM	0.614	–
[9], 37 nM	1.09	–
[9], 111.1 nM	0.588	–
[9], 333.3 nM	0.893	–
[9], 1000 nM	0.525	–
[9], 3000 nM	1.13	–
[10], 4.1 nM	0.768	–
[10], 12.3 nM	0.554	–
[10], 37 nM	0.708	–
[10], 111.1 nM	0.428	–
[10], 333.3 nM	0.915	–
[10], 1000 nM	1.17	–
[10], 3000 nM	3.08	–
[11], 4.1 nM	0.935	–
[11], 12.3 nM	0.283	–
[11], 37 nM	0.726	–
[11], 111.1 nM	0.552	–
[11], 333.3 nM	0.896	–
[11], 1000 nM	1.08	–
[11], 3000 nM	2.02	–
[12], 4.1 nM	0.551	–
[12], 12.3 nM	1.11	–
[12], 37 nM	1.1	–
[12], 111.1 nM	1.17	–
[12], 333.3 nM	0.856	–
[12], 1000 nM	0.796	–
[12], 3000 nM	1.7	–
[13], 4.1 nM	0.885	–
[13], 12.3 nM	0.483	–
[13], 37 nM	0.732	–
[13], 111.1 nM	0.989	–
[13], 333.3 nM	1.11	–
[13], 1000 nM	1.17	–
[13], 3000 nM	1.97	–
[14], 4.1 nM	0.639	–
[14], 12.3 nM	0.653	–
[14], 37 nM	0.833	–
[14], 111.1 nM	0.88	–
[14], 333.3 nM	0.504	–
[14], 1000 nM	1.35	–
[14], 3000 nM	2.01	–

CCOC(=O)OC(C)OC1=C(C(=O)Nc2ccccn2)N(C)S(=O)(=O)c2ccccc21 (centres undefined) [Ampiroxicam]
Conditions	phenotypic distance	surviving fraction
[1], 4.1 nM	–	0.815
[1], 12.3 nM	–	1.1
[1], 37 nM	–	0.896
[1], 111.1 nM	–	0.884
[1], 333.3 nM	–	0.939
[1], 1000 nM	–	1.08
[1], 3000 nM	–	0.871
[2], 4.1 nM	–	0.768
[2], 12.3 nM	–	1.05
[2], 37 nM	–	1.02
[2], 111.1 nM	–	1.05
[2], 333.3 nM	–	1.04
[2], 1000 nM	–	1.08
[2], 3000 nM	–	0.95
[3], 4.1 nM	–	0.882
[3], 12.3 nM	–	0.885
[3], 37 nM	–	1.02
[3], 111.1 nM	–	0.926
[3], 333.3 nM	–	1.08
[3], 1000 nM	–	0.895
[3], 3000 nM	–	0.916
[4], 4.1 nM	–	0.955
[4], 12.3 nM	–	1.02
[4], 37 nM	–	0.962
[4], 111.1 nM	–	1.02
[4], 333.3 nM	–	0.943
[4], 1000 nM	–	1.06
[4], 3000 nM	–	1.08
[5], 4.1 nM	–	1.14
[5], 12.3 nM	–	0.946
[5], 37 nM	–	0.986
[5], 111.1 nM	–	1.1
[5], 333.3 nM	–	1.01
[5], 1000 nM	–	0.932
[5], 3000 nM	–	0.984
[6], 4.1 nM	–	0.957
[6], 12.3 nM	–	0.928
[6], 37 nM	–	0.953
[6], 111.1 nM	–	0.847
[6], 333.3 nM	–	1.09
[6], 1000 nM	–	0.883
[6], 3000 nM	–	1.01
[7], 4.1 nM	–	0.83
[7], 12.3 nM	–	0.849
[7], 37 nM	–	0.967
[7], 111.1 nM	–	1
[7], 333.3 nM	–	0.856
[7], 1000 nM	–	1.02
[7], 3000 nM	–	1.08
[8], 4.1 nM	1.28	–
[8], 12.3 nM	0.987	–
[8], 37 nM	0.538	–
[8], 111.1 nM	0.744	–
[8], 333.3 nM	0.444	–
[8], 1000 nM	0.516	–
[8], 3000 nM	0.705	–
[9], 4.1 nM	0.638	–
[9], 12.3 nM	0.959	–
[9], 37 nM	0.379	–
[9], 111.1 nM	1.16	–
[9], 333.3 nM	0.73	–
[9], 1000 nM	1.03	–
[9], 3000 nM	0.924	–
[10], 4.1 nM	0.946	–
[10], 12.3 nM	0.661	–
[10], 37 nM	0.814	–
[10], 111.1 nM	0.688	–
[10], 333.3 nM	0.952	–
[10], 1000 nM	0.72	–
[10], 3000 nM	0.529	–
[11], 4.1 nM	0.796	–
[11], 12.3 nM	0.83	–
[11], 37 nM	0.552	–
[11], 111.1 nM	0.54	–
[11], 333.3 nM	0.507	–
[11], 1000 nM	1.03	–
[11], 3000 nM	0.908	–
[12], 4.1 nM	0.789	–
[12], 12.3 nM	0.855	–
[12], 37 nM	0.505	–
[12], 111.1 nM	0.762	–
[12], 333.3 nM	0.521	–
[12], 1000 nM	0.542	–
[12], 3000 nM	0.73	–
[13], 4.1 nM	0.574	–
[13], 12.3 nM	0.804	–
[13], 37 nM	0.922	–
[13], 111.1 nM	0.659	–
[13], 333.3 nM	0.834	–
[13], 1000 nM	0.819	–
[13], 3000 nM	0.71	–
[14], 4.1 nM	0.739	–
[14], 12.3 nM	0.998	–
[14], 37 nM	0.78	–
[14], 111.1 nM	0.734	–
[14], 333.3 nM	0.689	–
[14], 1000 nM	0.71	–
[14], 3000 nM	0.801	–
